Measurements taken from ChEMBL document CHEMBL1201862, “PubChem BioAssay data set” (2004).
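Growth conditions: 96-well plates. Treatment: test compound, 48 hours, 5 concentrations. Analysis: linear interpolation between bracketing concentrations; unreached endpoints set to highest concentration. The concentration for 50% growth inhibition is given as GI50.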 Activity calls are given as the source filed them. No stated cut-off is given here; in the data, active = GI50 up to about 1.1 µM and inactive = higher.

How the values were obtained:
Assay in all cases: inhibition of tumour cell growth, NCI panel, 48 h
[1] = system: SW-620
[2] = system: NCI-H23
[3] = system: A498
[4] = system: NCI-H460
[5] = system: A549
[6] = system: CAKI-1
[7] = system: ACHN
[8] = system: SN12C
[9] = system: M14
[10] = system: U-251
[11] = system: SK-MEL-2
[12] = system: DMS-114
[13] = system: OVCAR-5
[14] = system: SNB-75
[15] = system: HT-29
[16] = system: OVCAR-3

SMILES | GI50 [1] | GI50 [2] | GI50 [3] | GI50 [4] | GI50 [5] | GI50 [6] | GI50 [7] | GI50 [8] | GI50 [9] | GI50 [10] | GI50 [11] | GI50 [12] | GI50 [13] | GI50 [14] | GI50 [15] | GI50 [16]
CCCC1C[C@H]2CCCCN2[C@H]2CCCN12 (stereo partly specified) | > 37.8 µM (inactive) | > 100 µM (inactive) | > 100 µM (inactive) | > 66.4 µM (inactive) | > 87.1 µM (inactive) | > 100 µM (inactive) | > 100 µM (inactive) | > 100 µM (inactive) | > 100 µM (inactive) | > 44.4 µM (inactive) | > 100 µM (inactive) | > 51.5 µM (inactive) | > 100 µM (inactive) | > 100 µM (inactive) | > 100 µM (inactive) | > 100 µM (inactive)
CC(=O)C1Cn2c(=O)c3cc4ccccc4cc3c(=O)n2C=C1C (stereo unspecified) | > 100 µM (inactive) | > 100 µM (inactive) | 43.5 µM (inactive) | 97.9 µM (inactive) | > 100 µM (inactive) | > 100 µM (inactive) | > 100 µM (inactive) | > 100 µM (inactive) | > 100 µM (inactive) | > 100 µM (inactive) | > 100 µM (inactive) | > 100 µM (inactive) | > 100 µM (inactive) | 67.8 µM (inactive) | – | > 100 µM (inactive)
COc1cc2c(cc1O)C=NCC2 | > 100 µM (inactive) | > 100 µM (inactive) | 94.2 µM (inactive) | > 100 µM (inactive) | > 100 µM (inactive) | > 100 µM (inactive) | > 100 µM (inactive) | > 100 µM (inactive) | > 100 µM (inactive) | > 100 µM (inactive) | > 100 µM (inactive) | > 100 µM (inactive) | > 100 µM (inactive) | > 100 µM (inactive) | – | 78.5 µM (inactive)
N#C/C(=C(/S)Nc1ccccc1)c1nc2ccccc2[nH]1 | > 10 µM (inactive) | > 10 µM (inactive) | > 10 µM (inactive) | > 10 µM (inactive) | > 10 µM (inactive) | > 10 µM (inactive) | > 10 µM (inactive) | > 10 µM (inactive) | > 10 µM (inactive) | > 10 µM (inactive) | > 10 µM (inactive) | > 10 µM (inactive) | > 10 µM (inactive) | > 10 µM (inactive) | – | > 10 µM (inactive)
COc1cc(C2c3cc4c(cc3[C@@H](N(C)c3ccc(N(C)C)cc3)C3COC(=O)C23)OCO4)cc(OC)c1O (stereo partly specified) | 0.184 µM (active) | 0.291 µM (active) | 26.8 µM (inactive) | 0.352 µM (active) | – | 0.491 µM (active) | 0.774 µM (active) | 0.59 µM (active) | 0.305 µM (active) | 0.219 µM (active) | 0.33 µM (active) | 0.264 µM (active) | 3.42 µM (inactive) | 4.34 µM (inactive) | 0.269 µM (active) | 0.213 µM (active)
O=[N+]([O-])c1ccc(C[P+]2(c3ccccc3)CCCCC2)cc1.[O-][Cl+3]([O-])([O-])[O-] | > 100 µM (inactive) | > 100 µM (inactive) | > 100 µM (inactive) | > 100 µM (inactive) | > 100 µM (inactive) | – | > 100 µM (inactive) | > 100 µM (inactive) | > 100 µM (inactive) | > 100 µM (inactive) | > 100 µM (inactive) | > 100 µM (inactive) | > 100 µM (inactive) | > 100 µM (inactive) | > 100 µM (inactive) | > 100 µM (inactive)
CC(C)CC(NC(=O)c1cccc(O)c1O)C(=O)NCc1cc(CNC(=O)C(CC(C)C)NC(=O)c2cccc(O)c2O)cc(CNC(=O)C(CC(C)C)NC(=O)c2cccc(O)c2O)c1 (stereo unspecified) | 17.2 µM (inactive) | 15.6 µM (inactive) | 24.8 µM (inactive) | 14 µM (inactive) | 18.6 µM (inactive) | 46.3 µM (inactive) | 22.2 µM (inactive) | 12.8 µM (inactive) | – | 11.1 µM (inactive) | 7.05 µM (inactive) | 5.13 µM (inactive) | 10.8 µM (inactive) | 20.6 µM (inactive) | 13.3 µM (inactive) | 4.33 µM (inactive)
